In patent US20020071869A1, “Microparticle composition and method” (priority 2000, published 2002):

Test: Critical micelle concentration of surfactant
Type: physicochemical
Conditions: at 25° C.

CCCCCCCCCCCCOS(=O)(=O)[O-].[Na+] [SDS, sodium dodecyl sulfate]
critical micelle concentration: 8.1 mM
